# Results: patent US11285127B2, “Compositions and methods for lowering triglycerides without raising LDL-C levels in a subject on concomitant statin therapy” (Amarin Pharmaceuticals Ireland Limited, priority 2013, dated 2022)
# Test system: patients with fasting triglyceride levels >200 mg/dl and <500 mg/dl despite statin therapy
# Assay: 12-week study: lipid profile (TC, LDL-C, HDL-C, non-HDL-C, VLDL-C, VLDL-TG, RLP-C)
# Assay type: in vivo, human
# Conditions: MITT
# Text: Parameters (a)-(z) can be measured in accordance with any clinically acceptable methodology. For example, triglycerides, total cholesterol, HDL-C and fasting blood sugar can be sample from serum and analyzed using standard photometry techniques. VLDL-TG, LDL-C and VLDL-C can be calculated or determined using serum lipoprotein fractionation by preparative ultracentrifugation and subsequent quantitative analysis by refractometry or by analytic ultracentrifugal methodology. Apo A1, Apo B and hsCRP can be determined from serum using standard nephelometry techniques. Lipoprotein (a) can be determined from serum using standard turbidimetric immunoassay techniques. LDL particle number and particle size can be determined using nuclear magnetic resonance (NMR) spectrometry. Remnants lipoproteins and LDL-phospholipase A2 can be determined from EDTA plasma or serum and serum, respectively, using enzymatic immunoseparation techniques. Oxidized LDL, intercellular adhesion molecule-1 and interleukin-2 levels can be determined from serum using standard enzyme immunoassay techniques. These techniques are described in detail in standard textbooks, for example Tietz Fundamentals of Clinical Chemistry, 6th Ed. (Burtis, Ashwood and Borter Eds.), WB Saunders Company.
# A multi-center, placebo-controlled, randomized, double-blind, 12-week study was performed to evaluate the efficacy and safety of >96% E-EPA in patients with fasting triglyceride levels >200 mg/dl and <500 mg/dl despite statin therapy (the mean of two qualifying entry values needed to be >185 mg/dl and at least one of the values needed to be >200 mg/dl). The primary objective of the study was to determine the efficacy of >96% E-EPA 2 g daily and 4 g daily, compared to placebo, in lowering fasting TG levels in patients with high risk for cardiovascular disease and with fasting TG levels 200 mg/dl and <500 mg/dl, despite treatment to LDL-C goal on statin therapy.
# The secondary objectives of this study were the following: • 1. To determine the safety and tolerability of >96% E-EPA 2 g daily and 4 g daily; • 2. To determine the effect of >96% E-EPA on lipid and apolipoprotein profiles including total cholesterol (TC), non-high-density lipoprotein cholesterol (non-HDL-C), low density lipoprotein cholesterol (LDL-C), high density lipoprotein cholesterol (HDL-C), and […]; • 3. To determine the effect of >96% E-EPA on lipoprotein associated phospholipase A2 (Lp-PLA2) from baseline to week 12; • 4. To determine the effect of >96% E-EPA on low-density lipoprotein (LDL) particle number and size; • 5. To determine the effect of >96% E-EPA on oxidized LDL; • 6. To determine the effect of >96% E-EPA on fasting plasma glucose (FPG) and hemoglobin A1c (HbA1c); • 7. To determine the effect of >96% E-EPA on insulin resistance; • 8. To determine the effect of >96% E-EPA on high-sensitivity C-reactive protein (hsCRP); • 9. To determine the effects of >96% E-EPA 2 g daily and 4 g daily on the incorporation of fatty acids into red blood cell membranes and into plasma phospholipids; • 10. To explore the relationship between baseline fasting TG levels and the reduction in fasting TG levels; and • 11. To explore the relationship between changes of fatty acid concentrations in plasma and red blood cell membranes, and the reduction in fasting TG levels.
# The primary efficacy variable for the double-blind treatment period was percent change in TG from baseline to Week 12 endpoint. […]
# [1] = AMR 101 2 g + statin, Atorva subgroup
# [2] = AMR 101 2 g + statin, Rosuva subgroup
# [3] = AMR 101 2 g + statin, Simva subgroup
# [4] = AMR 101 2 g + statin, Statin Potency High
# [5] = AMR 101 2 g + statin, Statin Potency Low
# [6] = AMR 101 2 g + statin, Statin Potency Medium
# [7] = AMR 101 2 g + statin, Diabetes No, Week 12 endpoint
# [8] = AMR 101 2 g + statin, Diabetes Yes, Week 12 endpoint
# [9] = AMR 101 2 g + statin, Non-statin Washout No, Week 12 endpoint
# [10] = AMR 101 2 g + statin, Non-statin Washout Yes, Week 12 endpoint
# [11] = AMR 101 2 g + statin, baseline TG tertile Highest (≥289.5 mg/dL), Week 12 endpoint
# [12] = AMR 101 2 g + statin, baseline TG tertile Lowest (<230.5 mg/dL), Week 12 endpoint
# [13] = AMR 101 2 g + statin, baseline TG tertile Middle (230.5 to <289.5 mg/dL), Week 12 endpoint
# [14] = AMR101 2 g/d + statin, Week 12 endpoint
# [15] = AMR101 2 g/d + statin, percent change from baseline to Week 12 endpoint
# [16] = AMR 101 4 g + statin, Atorva subgroup
compound,measurement,setting,value
"CC/C=C\C/C=C\C/C=C\C/C=C\C/C=C\CCCC(=O)OCC [AMR101, ethyl eicosapentaenoate]",LDL-C Median % chg from BL,[1],4.9%
same,"LDL-C, Diff from pbo (Hodges-Lehmann median difference)",[1],1.1
same,"LDL-C, EOT (Week 12 endpoint) median",[1],88.0
same,Non-HDL-C Median % chg from BL,[1],10.5%
same,"Non-HDL-C, Diff from pbo (Hodges-Lehmann median difference)",[1],2.0
same,"Non-HDL-C, EOT (Week 12 endpoint) median",[1],135.0
same,LDL-C Median % chg from BL,[2],4.3%
same,"LDL-C, Diff from pbo (Hodges-Lehmann median difference)",[2],−4.2
same,"LDL-C, EOT (Week 12 endpoint) median",[2],87.0
same,Non-HDL-C Median % chg from BL,[2],2.7%
same,"Non-HDL-C, Diff from pbo (Hodges-Lehmann median difference)",[2],−9.0
same,"Non-HDL-C, EOT (Week 12 endpoint) median",[2],133.0
same,LDL-C Median % chg from BL,[3],1.8%
same,"LDL-C, Diff from pbo (Hodges-Lehmann median difference)",[3],−4.8
same,"LDL-C, EOT (Week 12 endpoint) median",[3],88.0
same,Non-HDL-C Median % chg from BL,[3],0.0%
same,"Non-HDL-C, Diff from pbo (Hodges-Lehmann median difference)",[3],−6.8
same,"Non-HDL-C, EOT (Week 12 endpoint) median",[3],133.5
same,LDL-C Median % chg from BL,[4],3.1%
same,"LDL-C, Diff from pbo (Hodges-Lehmann median difference)",[4],−1.7
same,"LDL-C, EOT (Week 12 endpoint) median",[4],91.0
same,Non-HDL-C Median % chg from BL,[4],5.4%
same,"Non-HDL-C, Diff from pbo (Hodges-Lehmann median difference)",[4],−3.5
same,"Non-HDL-C, EOT (Week 12 endpoint) median",[4],142
same,LDL-C Median % chg from BL,[5],0.9%
same,"LDL-C, Diff from pbo (Hodges-Lehmann median difference)",[5],7.1
same,"LDL-C, EOT (Week 12 endpoint) median",[5],95.0
same,Non-HDL-C Median % chg from BL,[5],−2.2%
same,"Non-HDL-C, Diff from pbo (Hodges-Lehmann median difference)",[5],3.3
same,"Non-HDL-C, EOT (Week 12 endpoint) median",[5],135
same,LDL-C Median % chg from BL,[6],2.4%
same,"LDL-C, Diff from pbo (Hodges-Lehmann median difference)",[6],−5.9
same,"LDL-C, EOT (Week 12 endpoint) median",[6],85.0
same,Non-HDL-C Median % chg from BL,[6],1.7%
same,"Non-HDL-C, Diff from pbo (Hodges-Lehmann median difference)",[6],−7.1
same,"Non-HDL-C, EOT (Week 12 endpoint) median",[6],133
same,"LDL-C Diff from pbo (median % chg, Hodges-Lehmann)",[7],−3.1%
same,LDL-C EOT Median,[7],88.0 mg/dL
same,LDL-C Median % chg from BL,[7],2.6%
same,"Non-HDL-C Diff from pbo (median % chg, Hodges-Lehmann)",[7],−8.6%
same,Non-HDL-C EOT Median,[7],133 mg/dL
same,Non-HDL-C Median % chg from BL,[7],−0.7%
same,"LDL-C Diff from pbo (median % chg, Hodges-Lehmann)",[8],−3.8%
same,LDL-C EOT Median,[8],87.0 mg/dL
same,LDL-C Median % chg from BL,[8],2.2%
same,"Non-HDL-C Diff from pbo (median % chg, Hodges-Lehmann)",[8],−4.4%
same,Non-HDL-C EOT Median,[8],135 mg/dL
same,Non-HDL-C Median % chg from BL,[8],5.1%
same,"LDL-C Diff from pbo (median % chg, Hodges-Lehmann)",[9],−1.2%
same,LDL-C EOT Median,[9],91.5 mg/dL
same,LDL-C Median % chg from BL,[9],3.5%
same,"Non-HDL-C Diff from pbo (median % chg, Hodges-Lehmann)",[9],−4.6%
same,Non-HDL-C EOT Median,[9],135 mg/dL
same,Non-HDL-C Median % chg from BL,[9],3.8%
same,"LDL-C Diff from pbo (median % chg, Hodges-Lehmann)",[10],−6.3%
same,LDL-C EOT Median,[10],85.0 mg/dL
same,LDL-C Median % chg from BL,[10],2.2%
same,"Non-HDL-C Diff from pbo (median % chg, Hodges-Lehmann)",[10],−6.9%
same,Non-HDL-C EOT Median,[10],133 mg/dL
same,Non-HDL-C Median % chg from BL,[10],0.0%
same,"LDL-C Diff from pbo (median % chg, Hodges-Lehmann)",[11],−2.0%
same,LDL-C EOT Median,[11],85.0
same,LDL-C Median % chg from BL,[11],1.7%
same,"Non-HDL-C Diff from pbo (median % chg, Hodges-Lehmann)",[11],−5.0%
same,Non-HDL-C EOT Median,[11],150
same,Non-HDL-C Median % chg from BL,[11],3.0%
same,"LDL-C Diff from pbo (median % chg, Hodges-Lehmann)",[12],−5.7%
same,LDL-C EOT Median,[12],92.0
same,LDL-C Median % chg from BL,[12],3.1%
same,"Non-HDL-C Diff from pbo (median % chg, Hodges-Lehmann)",[12],−4.2%
same,Non-HDL-C EOT Median,[12],129
same,Non-HDL-C Median % chg from BL,[12],6.9%
same,"LDL-C Diff from pbo (median % chg, Hodges-Lehmann)",[13],−2.6%
same,LDL-C EOT Median,[13],86.5
same,LDL-C Median % chg from BL,[13],3.1%
same,"Non-HDL-C Diff from pbo (median % chg, Hodges-Lehmann)",[13],−7.0%
same,Non-HDL-C EOT Median,[13],132
same,Non-HDL-C Median % chg from BL,[13],−1.2%
same,HDL-C Week 12 EP Median (IQR),AMR101 2 g/d + statin,38.0 (11.0) mg/dL
same,LDL-C Week 12 EP Median (IQR),AMR101 2 g/d + statin,87.0 (27.0) mg/dL
same,Non-HDL-C Week 12 EP Median (IQR),AMR101 2 g/d + statin,134.0 (41.0) mg/dL
same,RLP-C Week 12 EP Median (IQR),AMR101 2 g/d + statin,11.0 (7.0) mg/dL
same,Total cholesterol Week 12 EP Median (IQR),AMR101 2 g/d + statin,175.0 (44.0) mg/dL
same,VLDL-C Week 12 EP Median (IQR),AMR101 2 g/d + statin,44.0 (25.0) mg/dL
same,VLDL-TG Week 12 EP Median (IQR),AMR101 2 g/d + statin,168.0 (98.0) mg/dL
same,HDL-C Percent change from Baseline Median (IQR),[14],0 (19.5) %
same,LDL-C Percent change from Baseline Median (IQR),[14],2.4 (26.1) %
same,Non-HDL-C Percent change from Baseline Median (IQR),[14],2.4 (26.1) %
same,RLP-C Percent change from Baseline Median (IQR),[14],−11.1 (40.0) %
same,Total cholesterol Percent change from Baseline Median (IQR),[14],2.1 (19.6) %
same,VLDL-C Percent change from Baseline Median (IQR),[14],1.6 (54.6) %
same,VLDL-TG Percent change from Baseline Median (IQR),[14],−2.1 (48.9) %
same,HDL-C Difference from placebo Estimated median,[15],−2.2%
same,LDL-C Difference from placebo Estimated median,[15],−3.6%
same,Non-HDL-C Difference from placebo Estimated median,[15],−5.5%
same,RLP-C Difference from placebo Estimated median,[15],−16.7%
same,Total cholesterol Difference from placebo Estimated median,[15],−4.8%
same,VLDL-C Difference from placebo Estimated median,[15],−10.5%
same,VLDL-TG Difference from placebo Estimated median,[15],−11.3%
same,LDL-C Median % chg from BL,[16],9.0%
same,"LDL-C, Diff from pbo (Hodges-Lehmann median difference)",[16],2.5
same,"LDL-C, EOT (Week 12 endpoint) median",[16],82.5
same,Non-HDL-C Median % chg from BL,[16],−6.3%
